Data set [1] deals with P. falciparum clone W2/Indochina. Description: In vitro malaria assay, [3H]-hypoxanthine incorporation. The format is cell-based. The following applies: Plasmodium falciparum, W2, 72 h, read-out: IC50 Plasmodium. How it is done: a. In vitro Parasite Culturing: P. falciparum clone W2/Indochina was grown in continuous culture using RPMI 1640 media containing 10% heat-inactivated type A+ human plasma, sodium bicarbonate (2.4 g/L), HEPES (5.94 g/L) and 4% washed human type A+ erythrocytes. Cultures were gassed with a 90% N2, 5% O2 and 5% CO2 mixture followed by incubation at 37° C. b. Assay Preparation: Test compounds at 5 mg/mL in DMSO were diluted 1:500 and then serially diluted in duplicate over 11 concentrations. P. falciparum cultures with >70% ring stage parasites were diluted to 0.5-0.7% parasitemia and 1.5% hematocrit in RPMI 1640 media. In 96-well plates a volume of 90 μl/well of parasitized erythrocytes was added on top of 10 μL/well of the test compound. A separate plate containing chloroquine, dihydroartemisinin and atovaquone was added to each set of assay plates as control drugs. A Beckman Coulter Biomek 3000 was used to dispense test compounds, control drugs and parasitized erythrocytes into the microtiter plates. Positive and negative controls were included in each plate. Positive controls consisted of parasitized erythrocytes and negative controls consisted of non-parasitized erythrocytes at 1.5% hematocrit in RPMI 1640 media. Assay plates were placed into a modulator incubator chamber and equilibrated with 90% N2, 5% O2 and 5% CO2 mixture then incubated at 37° C. for 48 hours. After 48 hours, approximately 0.05 μCi of [^3H]-hypoxanthine monohydrochloride was added to each well of the assay plates. Plates were put back into the modulator incubation chamber, gassed with the 90% N2, 5% O2 and 5% CO2 mixture then incubated at 37° C. for an additional 24 hours. After 72 hours total incubation time the plates were frozen at −80° C. until later processed for parasite growth determinations. c. Assay Plate Processing: Assay plates were harvested using a Perkin Elmer FilterMate Harvester. The incorporation of [^3H]-hypoxanthine into nucleic acid was measured using a Perkin Elmer Topcount NXT Microplate Scintillation & Luminescence Counter. d. Data Analysis: Data analysis was performed using a custom database manager (Dataspects, Inc). Nonlinear regression analysis was used to calculate EC50.

The test system of a further data set is Leishmania amazonensis. Description: Antileishmanial assay, Leishmania in infected macrophages (L. amazonensis). As to conditions: for IC50: Leishmania amazonensis, Macrophage.
Data set [2] has as its system Leishmania donovani in infected macrophages. The following applies: Senn et al. 2007; read-out: IC50 against Leishmania donovani in infected macrophages; cited from earlier work.
Data set [3] relates to leishmaniasis (LV82 PM infection), liver parasitemia. Put plainly: In vivo efficacy: liver parasitemia in BALB/c mice with leishmaniasis. The following applies: 10 mg/kg i.p.; for LDU mean ± SD: group mean, n=4; for % Reduction (Average) in liver parasitemia: infected BALB/c mice; for # of amastigotes per 200 nuclei: liver; for # of amastigotes per 200 nuclei / LDU: individual mice; for LDU: total liver parasitemia. How it is done: The following protocols were used to prepare the various treatments described in Table 2: • a. Miltefosine ([…] stock solution in sterile PBS): 7.5 mg miltefosine was weighed and put in a eppendorf tube, then 0.75 mL of sterile PBS was added. After vortexing, a clear solution was formed. Make 1 mg/mL solution daily by diluting 100 μL of 10 mg/mL miltefosine solution in 900 μL sterile PBS. • b. Vehicle control: 5% (v/v) DMSO, 50% (v/v) PEG 400, 10% (v/v) Ethanol, and 35% (v/v) distilled water. • c. Compound 47 (2 mg/mL solution of compound 47 in PEG 400/Ethanol vehicle): […]. Dilute the above solution 1:20 with PEG 400/EtOH/water daily. After vortexing and warming up at 37° C. for 30 min., a clear solution formed. • d. Compound 48 (2 mg/mL solution of compound 48 in PEG 400/Ethanol vehicle): 6.8 mg of compound 48 was dissolved in 0.17 mL of DMSO to make a 40 mg/mL stock solution. After vortexing, a yellowish-brown solution was formed. Diluted the above solution 1:20 with PEG 400/EtOH/water daily. After vortexing a clear solution formed. • e. Compound 50 (2 mg/mL solution of compound 50 in PEG 400/Ethanol vehicle): 8.4 mg of compound 50 was dissolved in 0.21 mL of DMSO to make a 40 mg/mL stock solution. After vortexing, a dark yellowish-brown solution was formed. Diluted the above solution 1:20 with PEG 400/EtOH/water. After vortexing a clear solution formed.
(§1) Compounds 47, 48, and 50 were then evaluated in animal studies with BALB/c mice with leishmaniasis. Compounds were delivered via i.p. injection at 10 mg/kg, with untreated, vehicle, and miltefosine controls as described in Table 2. […] Miltefosine, the only oral treatment currently available to treat leishmaniasis in humans, was also evaluated in the BALB/c mice for comparison purposes.

A short description of data set [4]: Body and organ weights of infected, treated BALB/c mice. The following applies: for Body weight / Mean body weight of mice Post-treatment: 10 mg/kg i.p.; for Body weight: individual mice, Table 4; for Mean body weight of mice Post-treatment / Mean body weight of mice Pre-treatment: group mean; for Mean body weight of mice Pre-treatment: pre-treatment (baseline). Type of data set: in vivo. As to the method: as §1

In another data set the test system is B. subtilis. Put plainly: MIC broth microdilution, Alamar Blue. Type of data set: cell-based. The following applies: minimum inhibitory concentration.
The next data set concerns C. glabrata. Put plainly: MIC broth microdilution, Alamar Blue. As to conditions: minimum inhibitory concentration. Type of data set: cell-based.
In a further data set the test system is B. anthracis. Type of data set: cell-based. The following applies: minimum inhibitory concentration.
A further data set has as its system P. aeruginosa. Description: MIC broth microdilution, Alamar Blue. The format is cell-based. The following applies: minimum inhibitory concentration.
The next data set relates to Leishmania donovani. Put plainly: Antileishmanial assay, Leishmania in infected macrophages (L. donovani). The following applies: for Selectivity Index: IC50 for HepG2 cells/IC50 for Leishmania donovani; for IC50: Leishmania donovani, Macrophage, read-out: IC50 Leishmania in infected macrophages.
The test system of the next data set is HepG2 cells. Put plainly: Cytotoxicity against human liver (HepG2) cells, Alamar Blue. The format is cell-based. As to the method: Several of these analogues were also evaluated for cytotoxicity against human liver (HepG2) cells. Of particular interest was that compounds 47 and 48 were approximately an order of magnitude less cytotoxic as compared to compound 1.
Adherent cell lines were maintained in Eagle's Minimal Essential Media (Sigma-Aldrich, St. Louis, Mo., USA) with 2 mM glutamine and Earle's Balanced Salt Solution (HyClone, Logan, Utah, USA) adjusted to contain 1.5 g/L sodium bicarbonate, 0.1 mM non-essential amino acids, 1 mM sodium pyruvate and 10% fetal calf serum. Fetal calf serum used in these assays was lot matched throughout. All cultures were maintained under a humidified 5% CO2 atmosphere at 37° C., had media refreshed twice weekly and were subcultured by trypsinization and resuspension at a ratio of 1:5 each week. Toxicity assays were conducted between passages 10-20. Target compound toxicity was measured by incubating the test compound with the cells for 4 hours, washing the cells and finally treating the cells with Alamar Blue. After 12-24 hours, the fluorescence of the reduced dye was measured. Fluorescence intensity as a function of test compound concentration was fit to the Fermi equation, using non-linear least squares regression analysis, to estimate IC50 values.

In a further data set the test system is C. albicans. Put plainly: MIC broth microdilution, Alamar Blue. The format is cell-based. As to conditions: minimum inhibitory concentration.
The test system of a further data set is S. aureus 13709. Put plainly: MIC broth microdilution, Alamar Blue. Type of data set: cell-based. The following applies: minimum inhibitory concentration.
For another data set, the system named is E. faecalis. Description: MIC broth microdilution, Alamar Blue. The format is cell-based. The following applies: minimum inhibitory concentration.
Another data set concerns S. pyogenes. Put plainly: MIC broth microdilution, Alamar Blue. The following applies: minimum inhibitory concentration. The format is cell-based.
The mark [5] stands for this setting: read-out: IC50 Leishmania in infected macrophages.
Setting [6] is: read-out: IC50 against Leishmania amazonensis.
Where [7] appears, read: HepG2, read-out: IC50 against the HepG2 cell line.
Setting [8] is: HepG2, read-out: IC50 mammalian HepG2 cells.

Structures are written as SMILES. Values joined by “and” are separate entries in the source; they are usually repeats but may differ in a detail not shown here. Equal entries are not always repeated. Where two headings read alike, the source gives them in different places. Where only a bound is given, the exact number is not on record here.

As to `C=CC(C#CC#CC(O)CCCCCCCCC)OC(C)=O` [(S,S)-1, 8-hydroxyheptadeca-1-ene-4,6-diyn-3-yl acetate, reference compound], the IC50 is 0.27 µg/mL in [1], 1.28 µM in the data set on Leishmania amazonensis (setting [5]), 1.28 µM with Leishmania amazonensis (setting [6]) and 0.32 µM in [2].

For the compound `C=C[C@@H](C#CC#C[C@@H](CCCCCCCCC)NCCCC)OC(C)=O` [Compound 48, (3S,8R)-8-(butylamino)heptadeca-1-en-4,6-diyn-3-yl acetate], the half-inhibitory concentration (IC50) in [1] is 5.72 µg/mL. In data set [3], the “LDU mean ± SD” value is on record as 2721.9; the “% Reduction (Average) in liver parasitemia” value (shortened to “% Reduction (Average)”) is given as 32.4%; the “# of amastigotes per 200 nuclei” value was 536 and 529 and 498 and 476; the LDU is 2541.4 and 2830.2 and 2913.1 and 2603.0. Besides, the “% Reduction (Average)” value in data set [3] (listed as compound 48) is on record as 32%. Moreover, in [4], the Body weight was 17.2 g and 19.2 g and 19.8 g and 19.0 g; the “Mean body weight of mice Post-treatment” value is on record as 18.8 g; the “Mean body weight of mice Pre-treatment” value was found to be 19.3 g. Besides, the “MIC B. subtilis” value in the data set with B. subtilis is listed as 125. Also, in the data set on C. glabrata, the “MIC C. glabrata” value is above 1000. Further, the “MIC B. anthracis” value against B. anthracis is given as 250. Also, in the data set on P. aeruginosa, the “MIC P. aeruginosa” value was above 1000. In the data set on Leishmania donovani, the “Selectivity Index” value is 10,000 and the IC50 was 0.034 µM. In addition, the IC50 in the data set on HepG2 cells (setting [7]) came to 342 ± 46 µM. Besides, in the data set on HepG2 cells (setting [8]), the IC50 worked out at 342 ± 46 µM. For the same compound, the “MIC C. albicans” value against C. albicans is 1000. Also, in the data set with S. aureus 13709, the “MIC S. aureus” value is 500. Further, the “MIC E. faecalis” value against E. faecalis is 500. For the same compound, the “MIC S. pyogenes” value in the data set on S. pyogenes is listed as 250.

On to `C=C[C@@H](C#CC#C[C@H](O)CCCCCCCCC)OC(C)=O` [Compound 1, (3S,8R)-8-hydroxyheptadeca-1-en-4,6-diyn-3-yl acetate], for which the IC50 was 0.341 µg/mL in [1]; 0.627 µM in the data set on Leishmania amazonensis (setting [5]); 0.63 µM with Leishmania amazonensis (setting [6]); 35 ± 3 µM in the data set on HepG2 cells (setting [7]); 35 ± 3 µM in the data set on HepG2 cells (setting [8]). Further, the “Selectivity Index” value in the data set with Leishmania amazonensis (IC50 for HepG2 cells/IC50 for Leishmania amazonensis) is listed as 60. Besides, the “MIC B. subtilis” value against B. subtilis stood at 8. For the same compound, the “MIC C. glabrata” value in the data set with C. glabrata is reported as above 1000. In the data set on B. anthracis, the “MIC B. anthracis” value was 4. In the data set with P. aeruginosa, the “MIC P. aeruginosa” value was above 1000. Besides, the “MIC C. albicans” value against C. albicans is listed as above 1000. Also, the “MIC S. aureus” value against S. aureus 13709 is on record as above 1000. The “MIC E. faecalis” value with E. faecalis was 32. The “MIC S. pyogenes” value against S. pyogenes is 8.

`C=C[C@@H](C#CC#C[C@@H](CCCCCCCCC)NC(=O)c1ccccc1)OC(C)=O` [Compound 47, (3S,8R)-8-benzamidoheptadeca-1-en-4,6-diyn-3-yl acetate]: the IC50 in data set [1] amounted to 4.85 µg/mL. Further, in [3], the “LDU mean ± SD” value worked out at 2979.6; the “% Reduction (Average)” value is 26.0%; the “# of amastigotes per 200 nuclei” value was 596 and 543 and 595 and 582; the LDU was 2960.3 and 2834.7 and 2961.0 and 3162.3. Further, in [3] (listed as compound 47), the “% Reduction (Average)” value came to 26%. In [4], the Body weight is 18.3 g (2×) and 19.5 g and 18.2 g; the “Mean body weight of mice Post-treatment” value was 18.6 g; the “Mean body weight of mice Pre-treatment” value amounted to 19.2 g. Further, the “MIC B. subtilis” value against B. subtilis is reported as above 1000. The “MIC C. glabrata” value in the data set on C. glabrata was above 1000. Also, the “MIC B. anthracis” value against B. anthracis is recorded as above 1000. Also, the “MIC P. aeruginosa” value in the data set on P. aeruginosa was above 1000. In addition, in the data set with Leishmania donovani, the “Selectivity Index” value is 14,000 and the IC50 turned out to be 0.035 µM. In addition, the IC50 with HepG2 cells (setting [7]) is 486 ± 14 µM. In the data set with HepG2 cells (setting [8]), the IC50 worked out at 486 ± 14 µM. The “MIC C. albicans” value in the data set with C. albicans was above 1000. Moreover, the “MIC S. aureus” value with S. aureus 13709 is listed as above 1000. In addition, the “MIC E. faecalis” value in the data set with E. faecalis was above 1000. For the same compound, the “MIC S. pyogenes” value against S. pyogenes was above 1000.

The values are drawn from patent publication US20130261133A1, “Therapeutic Compounds for Protozoal and Microbial Infections and Cancer” (THE UNIVERSITY OF MONTANA, priority 2012, published 2013).
